According to patent US7687643B2, “Process for preparing 3,3-dimethylindolines” (Amgen Inc., priority 2001, dated 2010):

These molecules were tested on Human Umbilical Vein Endothelial cells (VEGF-stimulated) (assay: HUVEC proliferation assay, VEGF-stimulated). Conditions: VEGF 50 ng/mL, 72 h, CyQuant, read-out: inhibited VEGF-stimulated HUVEC proliferation at a level.
Assay type: cell-based
Experimental: Human Umbilical Vein Endothelial cells are purchased from Clonetics, Inc., as cryopreserved cells harvested from a pool of donors. These cells, at passage 1, are thawed and expanded in EBM-2 complete medium, until passage 2 or 3. The cells are trypsinized, washed in DMEM+10% FBS+antibiotics, and spun at 1000 rpm for 10 min. Prior to centrifugation of the cells, a small amount is collected for a cell count. After centrifugation, the medium is discarded, and the cells are resuspended in the appropriate volume of DMEM+10% FBS+antibiotics to achieve a concentration of 3×10^5 cells/mL. Another cell count is performed to confirm the cell concentration. The cells are diluted to 3×10^4 cells/mL in DMEM+10% FBS+antibiotics, and 100 μL of cells are added to a 96-well plate. The cells are incubated at 37° C. for 22 h.
Prior to the completion of the incubation period, compound dilutions are prepared. Five-point, five-fold serial dilutions are prepared in DMSO, at concentrations 400-fold greater than the final concentrations desired. 2.5 μL of each compound dilution are diluted further in a total of 1 mL DMEM+10% FBS+antibiotics (400× dilution). Medium containing 0.25% DMSO is also prepared for the 0 μM compound sample. At the 22-hour timepoint, the medium is removed from the cells, and 100 μL of each compound dilution is added. The cells are incubated at 37° C. for 2-3 h.
During the compound pre-incubation period, the growth factors are diluted to the appropriate concentrations. Solutions of DMEM+10% FBS+antibiotics, containing either VEGF or bFGF at the following concentrations: 50, 10, 2, 0.4, 0.08, and 0 ng/mL are prepared. For the compound-treated cells, solutions of VEGF at 550 ng/mL or bFGF at 220 ng/mL for 50 ng/mL or 20 ng/mL final concentrations, respectively, are prepared since 10 μL of each will be added to the cells (110 μL final volume). At the appropriate time after adding the compounds, the growth factors are added. VEGF is added to one set of plates, while bFGF is added to another set of plates. For the growth factor control curves, the media on wells B4-G6 of plates 1 and 2 are replaced with media containing VEGF or bFGF at the varying concentrations (50-0 ng/mL). The cells are incubated at 37° C. for an additional 72 h.
At the completion of the 72 h incubation period, the medium is removed, and the cells are washed twice with PBS. After the second wash with PBS, the plates are tapped gently to remove excess PBS, and the cells are placed at −70° C. for at least 30 min. The cells are thawed and analyzed using the CyQuant fluorescent dye (Molecular Probes C-7026), following the manufacturer's recommendations. The plates are read on a Victor/Wallac 1420 workstation at 485 nm/530 nm (excitation/emission). Raw data are collected and analyzed using a 4-parameter fit equation in XLFit. IC50 values are then determined.
Work on `CNc1nccc(CNc2ncccc2C(=O)Nc2ccc3c(c2)CNCC3(C)C)n1` [Example 1038, N-(4,4-Dimethyl-1,2,3,4-tetrahydro-7-isoquinolinyl)-2-(((2-(methylamino)-4-pyrimidinyl)methyl)amino)-3-pyridinecarboxamide] yielded an IC50 of less than 50 nM.
With `O=C(Nc1ccc(C(F)(F)F)c(OCCN2CCCC2)c1)c1cccnc1NCc1ccnc2ccccc12` [Example 1021, N-(3-((2-(1-pyrrolidinyl)ethyl)oxy)-4-(trifluoromethyl)phenyl)-2-((4-quinolinylmethyl)amino)-3-pyridinecarboxamide] the IC50 was less than 50 nM.
`O=C(Nc1ccc(Cl)cc1)c1cccnc1NCc1ccc2ncccc2c1` [Example 21, N-(4-Chlorophenyl){2-[(6-quinolylmethyl)amino](3-pyridyl)}carboxamide] gave an IC50 of less than 50 nM.
`CC1(C)CN(S(C)(=O)=O)c2cc(NC(=O)c3cccnc3NCc3ccncc3)ccc21` [Example 1068, N-(3,3-dimethyl-1-(methylsulfonyl)-2,3-dihydro-1H-indol-6-yl)-2-((4-pyridinylmethyl)amino)-3-pyridinecarboxamide] gave an IC50 of less than 50 nM.
Molecule `CN1CCC(CCCOc2cc(CNc3ncccc3C(=O)Nc3ccc(C(F)(F)F)cc3)ccn2)CC1` [Example 922, 2-({2-[3-(1-Methyl-piperidin-4-yl)-propoxy]-pyridin-4-ylmethyl}-amino)-N-(4-trifluoromethyl-phenyl)-nicotinamide] has an IC50 of less than 50 nM.
In the case of `O=C(Nc1ccc(-c2ccccc2)cc1)c1cccnc1NCc1ccncc1` [Example 159, N-(4-Biphenyl){2-[(4-pyridylmethyl)amino](3-pyridyl)}carboxamide], the IC50 is reported as less than 50 nM.
For `CNc1nccc(CNc2ncccc2C(=O)Nc2cc(NC(=O)O[C@H]3CCOC3)cc(C(F)(F)F)c2)n1` [Example 1089, (3S)-tetrahydro-3-furanyl 3-(((2-(((2-(methylamino)-4-pyrimidinyl)methyl)amino)-3-pyridinyl)carbonyl)amino)-5-(trifluoromethyl)phenylcarbamate], the IC50 was less than 50 nM.
`COc1nccc(CNc2ncccc2C(=O)Nc2ccc3c(c2)CNCC3(C)C)n1` [Example 1132, N-(4,4-Dimethyl-1,2,3,4-tetrahydro-isoquinolin-7-yl)-2-[(2-methoxy-pyrimidin-4-ylmethyl)-amino]-nicotinamide] showed an IC50 of less than 50 nM.
`CN1CCC(COc2cc(NC(=O)c3cccnc3NCc3ccncc3)ccc2C(F)(F)C(F)(F)F)CC1` [Example 954, N-[3-(1-Methyl-piperidin-4-ylmethoxy)-4-pentafluoroethyl-phenyl]-2-[(pyridin-4-ylmethyl)-amino]-nicotinamide] gave an IC50 of less than 50 nM.
`CC(C)c1ccc(NC(=O)c2cccnc2NCc2ccnc3ccccc23)cc1` [Example 167, N-[4-(Isopropyl)phenyl]{2-[(4-quinolylmethyl)amino](3-pyridyl)}carboxamide] was tested, and the IC50 was less than 50 nM.
In the case of `CN1CC(C)(C)c2ccc(NC(=O)c3cccnc3NCc3ccncc3)cc21` [Example 1184, 2-[(Pyridin-4-ylmethyl)-amino]-N-(1,3,3-trimethyl-2,3-dihydro-1H-indol-6-yl)-nicotinamide], the IC50 is reported as less than 50 nM.
Work on `COc1cc(CNc2ncccc2C(=O)Nc2ccc3c(c2)CNCC3(C)C)ccn1` [Example 1177, N-(4,4-Dimethyl-1,2,3,4-tetrahydro-isoquinolin-7-yl)-2-[(2-methoxy-pyridin-4-ylmethyl)-amino]-nicotinamide] yielded an IC50 of less than 50 nM.
`CC1(C)CNc2cc(NC(=O)c3cccnc3NCc3ccnc4ccccc34)ccc21` [Example 1023, N-(3,3-Dimethyl-2,3-dihydro-1H-indol-6-yl)-2-((4-quinolinylmethyl)amino)-3-pyridinecarboxamide] was tested, and the IC50 was less than 50 nM.
`CNc1nccc(CNc2ncccc2C(=O)Nc2ccc3c(c2)NCC3(C)C)n1` [Example 1040, N-(3,3-Dimethyl-2,3-dihydro-1H-indol-6-yl)-2-(((2-(methylamino)-4-pyrimidinyl)methyl)amino)-3-pyridinecarboxamide] showed an IC50 of less than 50 nM.
With `CNc1cc(CNc2ncccc2C(=O)Nc2ccc3c(c2)CNCC3(C)C)ccn1` [Example 1130, N-(4,4-Dimethyl-1,2,3,4-tetrahydro-isoquinolin-7-yl)-2-[(2-methylamino-pyridin-4-ylmethyl)-amino]-nicotinamide] the IC50 was less than 50 nM.
In the case of `CCOC(=O)N1CC2(CC2)c2ccc(NC(=O)c3cccnc3NCc3ccnc(NC)c3)cc21` [Example 1106, Ethyl [1,2-dihydro-6-({2-[(2-methylamino-pyridin-4-ylmethyl)-amino]-pyridine-3-carbonyl}-amino)-3-spiro-1′-cyclopropyl-1H-indole]-1-carbamate], the IC50 is reported as less than 50 nM.
Work on `CNc1nccc(CNc2ncccc2C(=O)Nc2cc(OC[C@@H]3CCCN3C)cc(C(F)(F)F)c2)n1` [Example 1144, 2-[(2-Methylamino-pyrimidin-4-ylmethyl)-amino]-N-[3-(1-methyl-pyrrolidin-2-ylmethoxy)-5-trifluoromethyl-phenyl]-nicotinamide] yielded an IC50 of less than 50 nM.
In the case of `CC1(C)CNCc2cc(NC(=O)c3cccnc3NCc3ccnc4c3CCN4)ccc21` [Example 1147, 2-[(2,3-Dihydro-1H-pyrrolo[2,3-b]pyridin-4-ylmethyl)-amino]-N-(4,4-dimethyl-1,2,3,4-tetrahydro-isoquinolin-7-yl)-nicotinamide], the IC50 is reported as less than 50 nM.
`COc1cc(CNc2ncccc2C(=O)Nc2ccc3c(c2)NCC3(C)C)ccn1` [Example 1000, N-(3,3-dimethyl-2,3-dihydro-1H-indol-6-yl)-2-[(2-methoxy-pyridin-4-ylmethyl)-amino]-nicotinamide] gave an IC50 of less than 50 nM.
With `CS(=O)(=O)NCCOc1cc(NC(=O)c2cccnc2NCc2ccncc2)cc(C(F)(F)F)c1` [Example 1090, N-(3-((2-((methylsulfonyl)amino)ethyl)oxy)-5-(trifluoromethyl)phenyl)-2-((4-pyridinylmethyl)amino)-3-pyridinecarboxamide] the IC50 was less than 50 nM.
Molecule `CN1CCC[C@@H]1COc1cc(NC(=O)c2cccnc2NCc2ccncc2)cc(C(F)(F)F)c1` [Example 917, (R) N-[3-(1-Methyl-pyrrolidin-2-ylmethoxy)-5-trifluoromethyl-phenyl]-2-[(pyridin-4-ylmethyl)-amino]-nicotinamide] has an IC50 of less than 50 nM.
`CC(C)c1ccc(NC(=O)c2cccnc2NCc2ccc3ocnc3c2)cc1` [Example 1120, 2-((1,3-Benzoxazol-5-ylmethyl)amino)-N-(4-(1-methylethyl)phenyl)-3-pyridinecarboxamide] was tested, and the IC50 was less than 50 nM.
With `CC(C)(C)c1ccc(NC(=O)c2ccc(F)nc2NCc2ccncc2)cc1` [Example 154, N-[4-(tert-Butyl)phenyl]{6-fluoro-2-[(4-pyridylmethyl)amino](3-pyridyl)}carboxamide] the IC50 was less than 50 nM.
`O=C(Nc1ccc(C(OC[C@@H]2CCCN2)(C(F)(F)F)C(F)(F)F)cc1)c1cccnc1NCc1ccncc1` [Example 1141, 2-[(Pyridin-4-ylmethyl)-amino]-N-{4-[2,2,2-trifluoro-1-(pyrrolidin-2-ylmethoxy)-1-trifluoromethyl-ethyl]-phenyl}-nicotinamide] showed an IC50 of less than 50 nM.
Work on `O=C(Nc1cccc(C(OC[C@@H]2CCCN2)(C(F)(F)F)C(F)(F)F)c1)c1cccnc1NCc1ccncc1` [Example 1138, 2-[(Pyridin-4-ylmethyl)-amino]-N-{3-[2,2,2-trifluoro-1-(pyrrolidin-2-ylmethoxy)-1-trifluoromethyl-ethyl]-phenyl}-nicotinamide] yielded an IC50 of less than 50 nM.
